Where a name gives a salt, the structure may show the parent alone.
Key:
LD1 = LD1 (Sus scrofa, UniProt P00336); assay: Effect of cationic amphiphiles on the activity of LDH isoenzymes (Table 1); assay type: biochemical; details: 30 mM sodium phosphate buffer pH 7.4, 25° C.; for IC50: read-out: Amphiphile conc. Req'd for 50% Inactivation of Specified Isoenzyme (LD1)
Method: (§1) The assay for LDH activity in both the absence and presence of surfactant was conducted as follows. […] The resulting solution contains approximately 5 units/ml. […] To the equilibrated solution […]. of the enzyme solution was added, and the cuvette was rapidly shaken while covering the top of the cuvette with a small piece of Parafilm® and placed back into the spectrophotometer.
(§2) Amphiphile solutions were prepared by weighing out a given amount of amphiphile, e.g., 100 mg, and preparing a stock solution in 30 mM sodium phosphate buffer in 100 ml. volumetric flask. Solutions of lower amphiphile concentration were prepared by making the appropriate dilutions from the stock solution.
A number of cationic amphiphiles were investigated for specific inactivation of LD1 in the presence of LD5 and these compounds are listed in Table 1.

LD1 and LD5 = assay: Screening of amphiphiles for ability to discriminate between LD1 and LD5; details: range of amphiphile concentrations; relative activity vs buffer
Method: A series of solutions was prepared covering a range of concentrations for each amphiphile to be tested. The activities of both LD1 and LD5 were determined in the presence of the various concentrations of each amphiphile and compared with enzyme activities in buffer (relative activity).
Enzyme activity in the presence and absence of amphiphile was measured by the following procedure: Stock solutions of NADH (4 mM) and pyruvate (40 mM) were prepared daily in 30 mM sodium phosphate buffer, pH 7.4. Enzyme solutions were prepared daily by withdrawing 5 μl of the stock enzyme solutions with a Hamilton syringe and diluting to 5 ml with 30 mM sodium phosphate buffer. (The resulting solution contains approximately 5 U of enzyme/ml.) The enzyme assay was run by pipetting 2.7 ml of buffer or buffer surfactant solution into a 10 mm path length quartz cuvette, and 100 μl each of NADH and pyruvate stock solutions were added. […] Enzyme solution was added with good mixing; the absorbance decrease at 340 nm was measured as a function of time. The rate of the reaction was determined by measuring the slope of the initial absorbance decrease, i.e., within the first 50 seconds of the reaction.

[1] = target: T1, LDH isoenzymes (LD5 in the presence of LD1) (Oryctolagus cuniculus, UniProt P13491); assay: Anionic amphiphiles tested for specific interaction with LDH isoenzymes (Table 2); assay type: biochemical
T1 construct: LD1 (LDHB tetramer) only as comparison
Method: as §1, §2
A number of anionic amphiphiles were investigated for specific inactivation of LD5 in the presence of LD1 and these compounds are listed in Table 2.

LD1, sequence (P00336 whole entry): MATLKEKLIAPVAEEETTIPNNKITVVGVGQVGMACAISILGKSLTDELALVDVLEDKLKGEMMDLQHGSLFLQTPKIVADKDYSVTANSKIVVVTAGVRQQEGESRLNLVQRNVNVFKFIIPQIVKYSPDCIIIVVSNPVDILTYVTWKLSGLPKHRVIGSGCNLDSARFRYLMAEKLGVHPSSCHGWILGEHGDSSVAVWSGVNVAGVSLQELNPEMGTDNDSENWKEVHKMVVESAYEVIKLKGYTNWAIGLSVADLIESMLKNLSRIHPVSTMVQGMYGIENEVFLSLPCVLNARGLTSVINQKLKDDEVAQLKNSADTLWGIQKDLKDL

Molecule	Effectiveness (LDH isoenzyme inhibition specificity, LD1 vs LD5) (LD1 and LD5)	further results
CCCCCCCCCCCCN [Dodecylamine . HCl]	++	IC50 (LD1): 13 mM
CCCCCCCCCCCC(=O)O [lauric acid]		Interaction (specific inactivation of LD5 in the presence of LD1) [1]: no effect
CCCCCCCCCCCC(=O)[O-].[Na+] [Sodium dodecanoate]	0	
CCCCCCCC[N+](CCC)(CCCCCCCC)CCCCCCCC.[Br-] [Trioctylpropylammonium bromide]	0	IC50 (LD1): 1.6 mM
CCCCCCCC/C=C\CCCCCCCC(=O)N(C)CCS(=O)(=O)O [Sodium N-methyl-N-oleoyl taurate]	0	
Sodium n-decyldiphenylether disulfonate	++	
CCCCCCCCCCCCCCCCCC(=O)[O-].[Li+] [lithium stearate]		Interaction (specific inactivation of LD5 in the presence of LD1) [1]: no effect
CCCCCCCCCCCCCCOS(=O)(=O)[O-].[Na+] [Sodium tetradecylsulfate]	++	
CCCCCCCCC[N+](C)(C)C [Nonatrimethylammonium bromide]	-	IC50 (LD1): 0.35 mM
CCCCCCCCCCCCCCCCCC(=O)[O-].[Na+] [Sodium stearate]	0	
octylphenolpoly(1-oxapropene)oxaethane carboxylic acid sodium salt	0	
CCCCCCCCCCCCCCCCCCNC(=O)CC(C(=O)O)S(=O)(=O)O (centres unmarked) [Disodium N-octadecylsulfosuccinamate]	++	
CCCCOS(=O)(=O)[O-].[Na+] [Sodium butyl sulfate]	0	
CCCCCCCCCCCC[N+](C)(C)C.[Br-] [Dodecyltrimethylammonium bromide]	-	IC50 (LD1): 10 mM
Sodium isopropylnaphthalene sulfonate	+	
C[C@H](CCC(=O)O)[C@H]1CC[C@H]2[C@@H]3C(=O)C[C@@H]4CC(=O)CC[C@]4(C)[C@H]3CC(=O)[C@]12C [dehydrocholic acid]		Interaction (specific inactivation of LD5 in the presence of LD1) [1]: no effect
CCCCCCCCOS(=O)(=O)[O-].[Na+] [Sodium octyl sulfate]	+	
C[C@H](CCC(=O)O)[C@H]1CC[C@H]2[C@@H]3C(=O)C[C@@H]4CC(=O)CC[C@]4(C)[C@H]3CC(=O)[C@]12C [Sodium dehydrocholate]	0	
CC[n+]1ccccc1.[Br-] [N-Ethylpyridinium bromide]		Amphiphile conc. Req'd for 50% Inactivation of Specified Isoenzyme (LD1) (LD1): no effect

From patent US4250255A, “Assay method for isoenzyme activity” (Eastman Kodak Company, priority 1977, dated 1981)
